Experimental findings from patent US20240261296A1, “THERAPEUTIC MODALITIES FOR INHIBITING PANCREATIC BETA CELL IMPAIRMENT AND TREATING DIABETES” (Hadasit Medical Research Serices & Development Ltd., priority 2021, published 2024) are described below.

Each structure is given as a SMILES string. “Also recorded” adds a separate entry of the source.

Holding throughout (assay type): in vivo
Data set [1] deals with db/db mice. Nature of the data set: intraperitoneal glucose tolerance test (IPGTT). The protocol: Lepr^db/db homozygotes (db/db) and heterozygote Lepr^db/+ (wild type) mice were treated daily with 2.5 mg/kg/day oral administration of the Vehicle, the commercial EP3 antagonist L-798106 and the compounds C5 and C13 for 8 weeks, as described in Example 9. A glucose tolerance test (Intraperitoneal glucose tolerance test, IPGTT) was performed following four weeks and eight weeks of the onset of treatment, as follows. Glucose (1 g/kg) was injected following 8 hours of fasting, and blood glucose was measured at baseline and at 30-, 60-, 90- and 120-minutes post glucose administration.
Heterozygote (wild type) and diabetic db/db mice were treated daily with the Vehicle, L-798106 and the compounds C17 and C20 for 8 weeks, essentially as described in Example 9. A glucose tolerance test (IPGTT) was performed essentially as described in Example 10.

Data set [2] can be described thus: lipid parameters in sera of db/db mice. The settings on record: 8 weeks of treatment; for blood triglyceride levels: vs vehicle. The protocol:
(§1) At the end of the 8 week-long period of treatment as described in Example 9, mice were sacrificed and blood samples were collected, and analyzed for different parameters as detailed below.
Lipid parameters in sera. Mice lipid profiles were assessed by measuring triglycerides and total cholesterol levels in the sera of the treated mice. The results for the triglycerides and cholesterol levels in db/db mice are presented in FIGS. 24A-24B respectively, in which, each treatment is graphically represented as described in Example 9, for each group n=5, data is presented ±SEM. Statistical analysis between each treated-group compared to vehicle was performed p-value for C5=0.06, for C13=0.02 and p >0.05 for the rest of the tests.

In the next data set the test system is C57Bl/6 mice. Nature of the data set: acute toxicity, IP and oral. The note with it: for physical or behavioral differences: IP 3 mg/kg or gavage total 9 mg/kg; for differences between experimental groups and saline/DMSO control mice (summary): IP 3 mg/kg/mouse or gavage 9 mg/kg/mouse. The protocol:
The safety of compounds C5 and C13 was examined in various in vivo settings, and compared to that of L-798106. The compounds were administered by oral gavage or intraperitoneal (IP) injection to C57Bl/6 mice, and acute toxicity, liver and kidney functions and blood glucose and insulin levels were evaluated. Additional safety experiments and measurements of various blood parameters in diabetic mice are further presented in Example 12 below.
Acute toxicity—IP and oral. For acute toxicity studies, a single IP dose of 3 mg/kg, or three oral doses (total of 9 mg/Kg) were administered. No mortality was observed by the end of the monitoring period (two days for IP administration or four days for oral administration), and all animals survived both modes of administration. No physical or behavioral differences were observed between the different groups and between the two modes of drug administration. Pictures of the sites of IP injection were taken when animals were sacrificed and no damage was observed.
(§2) Male mice (n=8 per group) were assigned to the following test groups. A dosage of 3 mg/kg/mouse was administered daily for 3 consecutive days in 200 μl of:
(§3) Group A: saline and DMSO carrier (referred to throughout the drawings and examples describing the in vivo experiment as “Control-Saline”, “Vehicle”, “Saline” or “Control”), at the equivalent concentration administered the other test groups (2.5%). Group B: Compound 1b (C5) at 3 mg/Kg: (total of 9 mg/Kg). Group C: Compound 1a (C13) at 3 mg/Kg: (total of 9 mg/Kg). Group D: L-798106 at 3 mg/Kg: (total of 9 mg/Kg).

Data set [3] can be described thus: blood insulin concentrations by serum C-peptide ELISA. The note with it: 8 weeks oral treatment; vs vehicle-treated diabetic mice. The protocol:
as §1
Blood insulin concentrations.
Blood insulin concentrations. Following 8 weeks of treatment, blood samples were collected and the levels of insulin in the collected sera were assessed essentially as described in Example 12. The results are presented in FIG. 28, in which the different test groups as presented in FIG. 28 are represented as described in Example 14 and “ns” indicates non-significant differences. The numbers of tested mice are as follows: vehicle (n=10), L-798106 (n=10), C17 (n=5), C20 (n=5).
Background: ELISA stands for enzyme-linked immunosorbent assay.

Data set [4] concerns db/db mice. Nature of the data set: fasting blood glucose (FBG) in db/db and control mice. The text has this:
Fasting blood glucose (FBG) concentrations in each of the treated groups were also compared following 4- and 8-weeks treatment as described in Example 9. Results for the 4-weeks treatment of the control mice and the db/db mice are presented in FIGS. 20A-20B respectively and for the 8-weeks treatment of the control mice and the db/db mice are presented in FIGS. 20C-20D, respectively; each treatment is graphically represented as described in Example 9.
FBG concentrations. FBG concentrations in each of the treated groups, vehicle, L-798106, C17 and C20, was compared following 4- and 8-weeks treatment essentially as described in Example 11. Results for the 4-weeks treatment of the control mice and the db/db mice are presented in FIGS. 29A-29B respectively and for the 8-weeks treatment of the control mice and the db/db mice are presented in FIGS. 29C-29D, in which, each treatment is graphically represented as described in Example 14, The numbers of tested mice are as follows: control mice (n=10-15), db/db mice (n=10).

Data set [5] is described as follows: glycemia evaluation in C57Bl/6 mice. The settings on record: for blood glucose concentration: IP 3 mg/kg, t0, 5 h, 24 h; for blood glucose concentrations: oral gavage 3 mg/kg/day for 3 days, t0, 5 h after each gavage, 24 h after last. The protocol:
as §2, §3
A. For glycemia evaluation, blood glucose was measured from the vein tail at the following time points (t(h)—time in hours): t=0—before gavage; t=5 h—following each gavage on days 1, 2 and 3 (5G1, 5G2 and 5G3, respectively); and t=24 h—after the last gavage (24G3).
A. Glycemia evaluation: Glucose concentration was measured in blood obtained from the vein tail of C57Bl/6 mice (n=12/group). Results are represented in FIGS. 13A-13D, in which, t(h) represents time in hours as follows: before injection (t0), at time 5 h (t5) and 24 h (t24) after injection of 200 μl saline/DMSO (FIG. 13A); of 3 mg/kg of C5 (FIG. 13B); C13 (FIG. 13C); or L-798106 (FIG. 13D), by using Accu-Chek performa glucometer.

Where [6] appears, read: 8 weeks oral 2.5 mg/kg/day, glucose 1 g/kg, all time points, vs vehicle.
Where [7] appears, read: 4 weeks of treatment, vs vehicle.

As to `CC[C@H](C)c1ccc(S(=O)(=O)Nc2ccccc2C(=O)N2C[C@@H](C)O[C@@H](C)C2)cc1` [Compound C5, 4-((S)-sec-butyl)-N-(2-((2S,6R)-2,6-dimethylmorpholine-4-carbonyl)phenyl)benzenesulfonamide], the “hyperglycemia in IPGTT, db/db mice” value with db/db mice [1] (setting [6]) was “significantly alleviated hyperglycemia”. The “hyperglycemia in IPGTT, db/db mice” value with db/db mice [1] (four weeks of treatment) is reported as “reduction of hyperglycemia could already be seen”. Further, in data set [2], the total cholesterol levels entry was “No effect on total cholesterol levels” and the blood triglyceride levels result is recorded as “significant reduction”. Moreover, in the data set on C57Bl/6 mice, the “physical or behavioral differences” value was “No physical or clinical behavioral differences”; the “differences between experimental groups and saline/DMSO control mice (summary)” value is reported as “no significant differences were observed”. The “blood insulin levels (serum C-peptide) in diabetic mice” value (“blood insulin levels (serum C-peptide)” below) in data set [3] is given as “the differences did not reach statistical significance”. The “FBG in db/db mice” value in the data set with db/db mice [4] (setting [7]) was “significant decrease in FBG”. Moreover, the “FBG in control mice” value in the data set with db/db mice [4] (8 weeks of treatment) is on record as “decrease in FBG in the control mice, although to a much lesser extent”. In data set [5], the blood glucose concentration result was “no differences were observed” and the blood glucose concentrations entry is “no significant alterations”.

For the compound `CC[C@@H]1CC[C@H](C)N1C(=O)c1cccc(NS(=O)(=O)c2ccc(C)c(F)c2)c1` [Compound C13, N-(3-((2R,5S)-2-ethyl-5-methylpyrrolidine-1-carbonyl)phenyl)-3-fluoro-4-methylbenzenesulfonamide], in the data set on db/db mice [1] (setting [6]), the “hyperglycemia in IPGTT, db/db mice” value was “significantly alleviated hyperglycemia”. Besides, the “hyperglycemia in IPGTT, db/db mice” value in the data set with db/db mice [1] (four weeks of treatment) was “reduction of hyperglycemia could already be seen”. In addition, in data set [2], the total cholesterol levels result is listed as “No effect on total cholesterol levels” and the blood triglyceride levels result is recorded as “significant reduction”. In addition, in the data set on C57Bl/6 mice, the “physical or behavioral differences” value is reported as “No physical or clinical behavioral differences”; the “differences between experimental groups and saline/DMSO control mice (summary)” value is on record as “no significant differences were observed”. In addition, in data set [3], the “blood insulin levels (serum C-peptide)” value is recorded as “the differences did not reach statistical significance”. In addition, the “FBG in db/db mice” value in the data set on db/db mice [4] (setting [7]) is given as “significant decrease in FBG”. In the data set with db/db mice [4] (8 weeks of treatment), the “FBG in control mice” value is “decrease in FBG in the control mice, although to a much lesser extent” and the “FBG in db/db mice” value is “significantly more pronounced”. Besides, in data set [5], the blood glucose concentration entry is “no differences were observed” and the blood glucose concentrations result is on record as “no significant alterations”.

`COc1ccc(Br)cc1S(=O)(=O)NC(=O)/C=C/c1ccccc1Cc1ccc2ccccc2c1` [Compound L-798106, (2E)-N-[(5-bromo-2-methoxyphenyl)sulfonyl]-3-[2-(2-naphthalenylmethyl)phenyl]-2-propenamide, reference compound]: the “hyperglycemia in IPGTT, db/db mice” value in the data set with db/db mice [1] (8 weeks oral 2.5 mg/kg/day, glucose 1 g/kg, all time points, vs vehicle, 2.5 mg/kg/day) is “significantly alleviated hyperglycemia; also recorded: appeared to be statistically more significant”. In addition, the “hyperglycemia in IPGTT, db/db mice” value in the data set on db/db mice [1] (four weeks of treatment) is listed as “reduction of hyperglycemia could already be seen”. In data set [2], the total cholesterol levels entry was “No effect on total cholesterol levels” and the blood triglyceride levels result is reported as “did not exhibit a statistically-significant reduction”. Further, in the data set with C57Bl/6 mice, the “physical or behavioral differences” value was “No physical or clinical behavioral differences”; the “differences between experimental groups and saline/DMSO control mice (summary)” value was “no significant differences were observed”. In data set [3], the “blood insulin levels (serum C-peptide)” value is listed as “the differences did not reach statistical significance”. The “FBG in db/db mice” value with db/db mice [4] (setting [7]) was “significant decrease in FBG”. In addition, in the data set on db/db mice [4] (8 weeks of treatment), the “FBG in control mice” value is recorded as “decrease in FBG in the control mice, although to a much lesser extent” and the “FBG in db/db mice” value is recorded as “significantly more pronounced”. Also, in data set [5], the blood glucose concentration entry was “no differences were observed” and the blood glucose concentrations result is on record as “no significant alterations”.
